Experimental data taken from patent US7332475B2 (priority 2003, dated 2008).

Experiments:
[1] = test system: BCV Kakegawa strain; test: Contact of BCV with catechin (EGCg) before inoculation of MDBK cells, TCID50 by cell denaturation effect; type: cell-based, bovine coronavirus; settings: 1 mg/ml EGCg
Procedure: BCV Kakegawa strain with a 50% tissue culture infectious dose (TCID50) of 1.8×10^8/ml and 1 mg/ml of catechin (EGCg: procured from Pharma Foods International Co., Ltd.) were contacted at 25° C. or 37° C. for 30, 60 or 90 minutes respectively, and a 10-fold dilution series was then produced with MEM.
After the cells were washed three times with PBS, 5% FBS-containing MEM was added in an amount of 500 μl/well, and incubation was conducted for 72 hours. Subsequently, the cells infected with the virus were identified with a cell denaturation effect to measure TCID50.

[2] = test system: BVDV(ATCC VR524); test: Contact of BVDV with catechin (EGCg) before inoculation of MDBK cells, detection of BVDV-derived DNA by RT-PCR; type: cell-based, bovine viral diarrhea virus; settings: 1 mg/ml catechin (EGCg), incubation 6 days
Procedure: The cells were washed three times with PBS, and 5% FBS-containing MEM was added thereto. Incubation was further conducted at 37° C. for 6 days.
After completion of the incubation, a DNA derived from BVDV in the MDBK cells was detected by RT-PCR to confirm whether or not the cells were infected with the virus.

[3] = test system: bovine coronavirus (BCV) Kakegawa strain and Mebus strain; settings: 1, 5, 10, 20 or 30 mmol/l reduced glutathione; MDBK cells; supernatant at 24, 48, 72 and 96 hours; FIGS. 1 and 2
Procedure: Madin Darby Bovin Kidney (MDBK) cells (ATCC CCL-22) was incubated with a 48-well plate such that the cells were 90% confluent, and then washed twice with a phosphate buffered saline (PBS).
Each of bovine coronavirus (BCV) Kakegawa strain (procured from Nippon Zenyaku Kogyo Co., Ltd.) [2.56 to 256 hemagglutinin (HA) titer/25 μl] and Mebus strain (ATCC VR-874) (0.064 and 0.64 HA titers/25 μl) at various concentrations, these strains being diluted with fetal bovine serum (FBS)-free Minimum Essential Medium (MEM) [Science, 122, 501 (1952)], was inoculated in an amount of 200 μl/well, and incubated at 37° C. for 90 minutes while moving a plate at intervals of 15 minutes. After the culture solution was washed three times with PBS, 500 μl/well of 5% FBS-containing MEM containing 1, 5, 10, 20 or 30 mmol/l of reduced glutathione was added thereto, and the mixture was further incubated at 37° C. During the incubation, 100 μl of the supernatant was recovered in 24, 48, 72 and 96 hours to measure a hemagglutinin (HA) titer.
The HA titer was measured by adding 25 μl of PBS containing 0.03% BSA to each well, adding 25 μl of the BCV culture supernatant thereto by multiple dilution, adding 0.8% mouse immobilization red cells thereto and measuring an agglutination reaction of red cells after 3 hours. […]

O=C(O[C@@H]1Cc2c(O)cc(O)cc2O[C@@H]1c1cc(O)c(O)c(O)c1)c1cc(O)c(O)c(O)c1 [EGCg, epigallocatechin gallate]
10^(n) TCID50/ml, EGCg-treated virus ([1]; contact 30 min, temperature cell empty (row between 25° C. and 37° C.), control 8.25): 4.25 10^(n) TCID50/ml | 10^(n) TCID50/ml, EGCg-treated virus ([1]; contact at 25° C. for 30 min, control 7.25): 5.75 10^(n) TCID50/ml | 10^(n) TCID50/ml, EGCg-treated virus ([1]; contact at 37° C. for 60 min, control 7.75): <2.75 10^(n) TCID50/ml | 10^(n) TCID50/ml, EGCg-treated virus ([1]; contact at 37° C. for 90 min, control 6.50): <2.00 10^(n) TCID50/ml | BVDV-derived DNA in MDBK cells by RT-PCR ([2]; contact at 37° C. for 30, 60 or 90 minutes): became undetected depending on the catechin treatment time | BVDV-derived DNA in MDBK cells by RT-PCR ([2]; contact at 37° C. for 90 minutes): not detected at all

N[C@@H](CCC(=O)N[C@@H](CS)C(=O)NCC(=O)O)C(=O)O [reduced glutathione, γ-L-Glu-L-Cys-Gly]
growth of coronavirus (hemagglutinin (HA) titer of culture supernatant) [3]: effect of inhibiting growth of coronavirus
